In patent US20240032541A1, “HERBICIDAL COMPOUNDS” (SYNGENTA CROP PROTECTION AG, priority 2020, published 2024):

Key:
Type in all cases: in vivo
[1] = system: Setaria faberi (SETFA); experiment: Pre-emergence herbicide glasshouse test; conditions: pre-emergence (sprayed after one day cultivation), 250 g/ha, evaluated after 13 days
Method: (§1) Seeds of a variety of test species are sown in standard soil in pots Amaranthus retoflexus (AMARE), Echinochloa crus-galli (ECHCG), Setaria faberi (SETFA)). After cultivation for one day (pre-emergence) or after 8 days cultivation (post-emergence) under controlled conditions in a glasshouse (at 24/16° C., day/night; 14 hours light; 65% humidity), the plants are sprayed with an aqueous spray solution derived from the formulation of the technical active ingredient in acetone/water (50:50) solution containing 0.5% Tween 20 (polyoxyethelyene sorbitan monolaurate, CAS RN 9005-64-5). Compounds are applied at 250 g/ha unless otherwise stated. The test plants are then grown in a glasshouse under controlled conditions in a glasshouse (at 24/16° C., day/night; 14 hours light; 65% humidity) and watered twice daily. After 13 days for pre and post-emergence, the test is evaluated for the percentage damage caused to the plant. The biological activities are shown in the following table on a five-point scale (5=81-100%; 4=61-80%; 3=41-60%; 2=21-40%; 1=0-20%).

[2] = system: Echinochloa crus-galli (ECHCG); experiment: Pre-emergence herbicide glasshouse test; conditions: pre-emergence (sprayed after one day cultivation), 250 g/ha, evaluated after 13 days
Method: as §1

[3] = system: Amaranthus retoflexus (AMARE); experiment: Pre-emergence herbicide glasshouse test; conditions: pre-emergence (sprayed after one day cultivation), 250 g/ha, evaluated after 13 days
Method: as §1

[4] = system: Setaria faberi (SETFA); experiment: Post-emergence herbicide glasshouse test; conditions: post-emergence (sprayed after 8 days cultivation), 250 g/ha, evaluated after 13 days
Method: as §1

[5] = system: Echinochloa crus-galli (ECHCG); experiment: Post-emergence herbicide glasshouse test; conditions: post-emergence (sprayed after 8 days cultivation), 250 g/ha, evaluated after 13 days
Method: as §1

[6] = system: Amaranthus retoflexus (AMARE); experiment: Post-emergence herbicide glasshouse test; conditions: post-emergence (sprayed after 8 days cultivation), 250 g/ha, evaluated after 13 days
Method: as §1

SMILES | percentage damage caused to the plant, five-point scale, SETFA [1] | percentage damage caused to the plant, five-point scale, ECHCG [2] | percentage damage caused to the plant, five-point scale, AMARE [3] | percentage damage caused to the plant, five-point scale, SETFA [4] | percentage damage caused to the plant, five-point scale, ECHCG [5] | percentage damage caused to the plant, five-point scale, AMARE [6]
Clc1cnc(Oc2cccc3cccc(Oc4ncc(Cl)cn4)c23)nc1 [Compound 1.001, 5-CHLORO-2-[[8-(5-CHLOROPYRIMIDIN-2-YL)OXY-1-NAPHTHYL]OXY]PYRIMIDINE] | 4 (4=61-80%) | 3 (3=41-60%) | 3 (3=41-60%) | 4 (4=61-80%) | 4 (4=61-80%) | 3 (3=41-60%)
FC(F)(F)CCCc1cccc2cccc(Oc3ncc(Cl)cn3)c12 [Compound 1.002, 5-chloro-2-[[8-(4,4,4-trifluorobutyl)-1-naphthyl]oxy]pyrimidine] | 1 (1=0-20%) | 1 (1=0-20%) | 1 (1=0-20%) | 3 (3=41-60%) | 2 (2=21-40%) | 3 (3=41-60%)
FC(F)(F)CCCc1ncnc2cccc(Oc3ncc(Cl)cn3)c12 [Compound 1.003, 5-(5-chloropyrimidin-2-yl)oxy-4-(4,4,4-trifluorobutyl)quinazoline] | 5 (5=81-100%) | 5 (5=81-100%) | 5 (5=81-100%) | 3 (3=41-60%) | 3 (3=41-60%) | 5 (5=81-100%)
CCCCc1nc(C(F)(F)F)nc2cccc(Oc3ncc(Cl)cn3)c12 [Compound 1.005] | 5 (5=81-100%) | 5 (5=81-100%) | 5 (5=81-100%) | 5 (5=81-100%) | 5 (5=81-100%) | 5 (5=81-100%)
FC(F)(F)CCOc1nc(C(F)(F)F)nc2cccc(Oc3ncc(Cl)cn3)c12 [Compound 1.006, 5-(5-chloropyrimidin-2-yl)oxy-2-(trifluoromethyl)-4-(3,3,3-trifluoropropoxy)quinazoline] | 5 (5=81-100%) | 3 (3=41-60%) | 5 (5=81-100%) | 3 (3=41-60%) | 3 (3=41-60%) | 5 (5=81-100%)
Cc1nc(OCCC(F)(F)F)c2c(Oc3ncc(Cl)cn3)cccc2n1 [Compound 1.007] | 3 (3=41-60%) | 1 (1=0-20%) | 2 (2=21-40%) | 1 (1=0-20%) | 1 (1=0-20%) | 3 (3=41-60%)
FC(F)(F)CCOc1ncnc2cccc(Oc3ncc(Cl)cn3)c12 [Compound 1.008] | 5 (5=81-100%) | 1 (1=0-20%) | 5 (5=81-100%) | 1 (1=0-20%) | 1 (1=0-20%) | 3 (3=41-60%)
FC(F)(F)CCOc1nccc2cccc(Oc3ncc(Cl)cn3)c12 [Compound 1.009] | 1 (1=0-20%) | 1 (1=0-20%) | 1 (1=0-20%) | 1 (1=0-20%) | 1 (1=0-20%) | 1 (1=0-20%)
Fc1cnc(Oc2cccc3nc(C(F)(F)F)nc(CCCC(F)(F)F)c23)nc1 [Compound 1.011] | 5 (5=81-100%) | 5 (5=81-100%) | 5 (5=81-100%) | 5 (5=81-100%) | 5 (5=81-100%) | 5 (5=81-100%)
FC(F)(F)CCCc1nccc2cccc(Oc3ncc(Cl)cn3)c12 [Compound 1.012, 8-(5-chloropyrimidin-2-yl)oxy-1-(4,4,4-trifluorobutyl)isoquinoline] | 5 (5=81-100%) | 5 (5=81-100%) | 4 (4=61-80%) | 4 (4=61-80%) | 4 (4=61-80%) | 4 (4=61-80%)
Cc1nc(CCCC(F)(F)F)c2c(Oc3ncc(Cl)cn3)cccc2n1 [Compound 1.013, 5-(5-chloropyrimidin-2-yl)oxy-2-methyl-4-(4,4,4-trifluorobutyl)quinazoline] | 5 (5=81-100%) | 4 (4=61-80%) | 3 (3=41-60%) | 4 (4=61-80%) | 4 (4=61-80%) | 3 (3=41-60%)
COc1nc(CCCC(F)(F)F)c2c(Oc3ncc(Cl)cn3)cccc2n1 [Compound 1.014, 5-(5-chloropyrimidin-2-yl)oxy-2-methoxy-4-(4,4,4-trifluorobutyl)quinazoline] | 5 (5=81-100%) | 5 (5=81-100%) | 5 (5=81-100%) | 5 (5=81-100%) | 5 (5=81-100%) | 5 (5=81-100%)
FC(F)(F)CCCc1cc(C(F)(F)F)nc2cccc(Oc3ncc(Cl)cn3)c12 [Compound 1.015, 5-(5-chloropyrimidin-2-yl)oxy-4-(4,4,4-trifluorobutyl)-2-(trifluoromethyl)quinoline] | 5 (5=81-100%) | 5 (5=81-100%) | 5 (5=81-100%) | 4 (4=61-80%) | 4 (4=61-80%) | 5 (5=81-100%)
Cc1nc(CCCC(F)(F)F)c2c(Oc3ncc(Cl)cn3)ccc(Cl)c2n1 [Compound 1.019, 8-chloro-5-(5-chloropyrimidin-2-yl)oxy-2-methyl-4-(4,4,4-trifluorobutyl)quinazoline] | 4 (4=61-80%) | 4 (4=61-80%) | 2 (2=21-40%) | 2 (2=21-40%) | 3 (3=41-60%) | 4 (4=61-80%)
